For the experiment, the system named is inflammatory pain. In words: Randall-Selitto test in rats (carrageenin-induced paw oedema, pressure pain). Format: in vivo, rat. Here is the method:
The weight ratios of the components (a) and (b) that will lead to a supra-additive effect (synergistic effect) of the inventive pharmaceutical composition may be determined via the test of Randall and Selitto as described in Arch. Int. Pharmacodyn., 1957, 111: 409 to 419, which is a model for inflammatory pain. The respective part of the literature is hereby incorporated by reference and forms part of the present disclosure.
By means of injection of 0.1 ml of Carrageenin-suspension ventrally into a hind paw of a rat an oedema is induced, on which pain is generated 4 hours later by continuously increasing pressure with a stamp (2 mm tip diameter). The antinociceptive and antihyperalgesic activity of the tested substance is determined at different points in time after administration of the substance. The measured value to be determined and at the same time also the end point of the pain test is the pressure at which the vocalisation reaction of the rat occurs. The percentage maximum possible effect (%MPE) is calculated. The maximum pressure of the stamp is 250 g. The group size is n=10.
The interactions studies presented herein were performed using equieffective doses of the two components, calculated from the ratio of the respective ED50 values of the components if administered alone. […]

Structures are written as SMILES.

Turning to `CC(=O)Nc1ccc(O)cc1` [Paracetamol], the “analgesic effect (in words)” value (Paracetamol alone, i.p.) is recorded as “dose-dependent analgesic effect”.

Regarding `CC[C@@H](c1cccc(O)c1)[C@@H](C)CN(C)C` [A, (1R,2R)-3-(3-Dimethylamino-1-ethyl-2-methyl-propyl)-phenol], the ED50 (Rattus norvegicus, iv, 0.25 h, i.v., 15 min p. appl. (peak effect), %MPE, vocalisation pressure, n=10, read-out: ED50 (confidence interval) of A applied alone) was 1.88 mg/kg.

The values are drawn from patent publication US20160128952A1, “Pharmaceutical Combination” (Gruenenthal GmbH, priority 2006, published 2016).
